Patent US12540120B2, “Herbicidal compounds” (SYNGENTA CROP PROTECTION AG, priority 2019, dated 2026)

Tests used:
Assay type in all cases: in vivo
[1] = system: Abutilon theophrasti (ABUTH); test: B3 Post-Emergence Efficacy—Test 3; conditions: post-emergence application, 250 g/ha, evaluated after 13 days (Test 3)
Method: (§1) B3 Post-Emergence Efficacy—Test 3 Seeds of a variety of test species are sown in standard soil in pots:—Amaranthus retoflexus (AMARE), Setaria faberi (SETFA), Echinochloa crus-galli (ECHCG), Ipomoea hederacea (IPOHE), Zea Mays (ZEAMX), Abutilon theophrasti (ABUTH). After 8 days cultivation (post-emergence) under controlled conditions in a glasshouse (at 24/16° C., day/night; 14 hours light; 65% humidity), the plants are sprayed with an aqueous spray solution derived from the formulation of the technical active ingredient in acetone/water (50:50) solution containing 0.5% Tween 20 (polyoxyethylene sorbitan monolaurate, CAS RN 9005-64-5). Compounds are applied at 250 g/ha. The test plants are then grown in a glasshouse under controlled conditions in a glasshouse (at 24/16° C., day/night; 14 hours light; 65% humidity) and watered twice daily. After 13 days, the test is evaluated for the percentage damage caused to the plant. The biological activities are assessed on a five point scale (5=80-100%; 4=60-79%; 3=40-59%; 2=20-39%; 1=0-19%). A blank value in the table is indicative that the compound was not tested on that species.

[2] = system: Amaranthus retoflexus (AMARE); test: B3 Post-Emergence Efficacy—Test 3; conditions: post-emergence application, 250 g/ha, evaluated after 13 days (Test 3)
Method: as §1

[3] = system: Ipomoea hederacea (IPOHE); test: B3 Post-Emergence Efficacy—Test 3; conditions: post-emergence application, 250 g/ha, evaluated after 13 days (Test 3)
Method: as §1

Setaria faberi (SETFA) [4] = test: B3 Post-Emergence Efficacy—Test 3; conditions: post-emergence application, 250 g/ha, evaluated after 13 days (Test 3)
Method: as §1

Zea Mays (ZEAMX) [5] = test: B3 Post-Emergence Efficacy—Test 3; conditions: post-emergence application, 250 g/ha, evaluated after 13 days (Test 3)
Method: as §1

[6] = system: Abutilon theophrasti (ABUTH); test: B6 Pre-Emergence Efficacy—Test 3; conditions: pre-emergence application, 250 g/ha, evaluated after 13 days (Test 3)
Method: (§2) B6 Pre-Emergence Efficacy—Test 3 Seeds of a variety of test species were sown in standard soil in pots: Amaranthus retoflexus (AMARE), Setaria faberi (SETFA), Echinochloa crus-galli (ECHCG), Ipomoea hederacea (IPOHE), Zea Mays (ZEAMX), Abutilon theophrasti (ABUTH). After cultivation for one day (pre-emergence) under controlled conditions in a glasshouse (at 24/16° C., day/night; 14 hours light; 65% humidity), the plants were sprayed with an aqueous spray solution derived from the formulation of the technical active ingredient in acetone/water (50:50) solution containing 0.5% Tween 20 (polyoxyethelyene sorbitan monolaurate, CAS RN 9005-64-5). Compounds are applied at 250 g/ha. The test plants were then grown in a glasshouse under controlled conditions (at 24/16° C., day/night; 14 hours light; 65% humidity) and watered twice daily. After 13 days, the test is evaluated for the percentage damage caused to the plant. The biological activities are assessed on a five point scale (5=80-100%; 4=60-79%; 3=40-59%; 2=20-39%; 1=0-19%). A blank value in the table is indicative that the compound was not tested on that species.

[7] = system: Amaranthus retoflexus (AMARE); test: B6 Pre-Emergence Efficacy—Test 3; conditions: pre-emergence application, 250 g/ha, evaluated after 13 days (Test 3)
Method: as §2

[8] = system: Echinochloa crus-galli (ECHCG); test: B6 Pre-Emergence Efficacy—Test 3; conditions: pre-emergence application, 250 g/ha, evaluated after 13 days (Test 3)
Method: as §2

[9] = system: Ipomoea hederacea (IPOHE); test: B6 Pre-Emergence Efficacy—Test 3; conditions: pre-emergence application, 250 g/ha, evaluated after 13 days (Test 3)
Method: as §2

Setaria faberi (SETFA) [10] = test: B6 Pre-Emergence Efficacy—Test 3; conditions: pre-emergence application, 250 g/ha, evaluated after 13 days (Test 3)
Method: as §2

Zea Mays (ZEAMX) [11] = test: B6 Pre-Emergence Efficacy—Test 3; conditions: pre-emergence application, 250 g/ha, evaluated after 13 days (Test 3)
Method: as §2

[12] = system: Amaranthus retoflexus (AMARE); test: B2 Post-Emergence Efficacy—Test 2; conditions: post-emergence application, 250 g/ha, evaluated after 13 days (Test 2)
In short: (§3)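 Pot-grown plants, sown in standard soil and raised 8 days in a glasshouse (24/16 °C day/night, 14 h light, 65% humidity), were sprayed post-emergence at 250 g/ha from acetone/water (50:50) with 0.5% Tween 20. Percentage damage was scored 13 days later on a five-point scale (5=80-100%; 1=0-19%).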

[13] = system: Echinochloa crus-galli (ECHCG); test: B2 Post-Emergence Efficacy—Test 2; conditions: post-emergence application, 250 g/ha, evaluated after 13 days (Test 2)
In short: as §3

[14] = system: Ipomoea hederacea (IPOHE); test: B2 Post-Emergence Efficacy—Test 2; conditions: post-emergence application, 250 g/ha, evaluated after 13 days (Test 2)
In short: as §3

Lolium perenne (LOLPE) [15] = test: B2 Post-Emergence Efficacy—Test 2; conditions: post-emergence application, 250 g/ha, evaluated after 13 days (Test 2)
In short: as §3

Setaria faberi (SETFA) [16] = test: B2 Post-Emergence Efficacy—Test 2; conditions: post-emergence application, 250 g/ha, evaluated after 13 days (Test 2)
In short: as §3

Solanum nigrum (SOLNI) [17] = test: B2 Post-Emergence Efficacy—Test 2; conditions: post-emergence application, 250 g/ha, evaluated after 13 days (Test 2)
In short: as §3

[18] = system: Amaranthus retoflexus (AMARE); test: B5 Pre-Emergence Efficacy—Test 2; conditions: 250 g/ha, evaluated after 13 days
In short: (§4)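 Pre-emergence spray, 250 g/ha, acetone/water 50:50 + 0.5% Tween 20, applied 1 day post-sowing. Glasshouse 24/16 °C, 14 h light, 65% RH. Damage read at 13 d; 5-point scale (5=80-100%, 1=0-19%).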

Solanum nigrum (SOLNI) [19] = test: B5 Pre-Emergence Efficacy—Test 2; conditions: 250 g/ha, evaluated after 13 days
In short: as §4

[20] = system: Echinochloa crus-galli (ECHCG); test: B5 Pre-Emergence Efficacy—Test 2; parameters: key: 5-point scale: 5=80-100%, 4=60-79%, 3=40-59%, 2=20-39%, 1=0-19% damage; conditions: 250 g/ha, evaluated after 13 days
In short: as §4

[21] = system: Ipomoea hederacea (IPOHE); test: B5 Pre-Emergence Efficacy—Test 2; parameters: key: 5-point scale: 5=80-100%, 4=60-79%, 3=40-59%, 2=20-39%, 1=0-19% damage; conditions: 250 g/ha, evaluated after 13 days
In short: as §4

Lolium perenne (LOLPE) [22] = test: B5 Pre-Emergence Efficacy—Test 2; parameters: key: 5-point scale: 5=80-100%, 4=60-79%, 3=40-59%, 2=20-39%, 1=0-19% damage; conditions: 250 g/ha, evaluated after 13 days
In short: as §4

Setaria faberi (SETFA) [23] = test: B5 Pre-Emergence Efficacy—Test 2; parameters: key: 5-point scale: 5=80-100%, 4=60-79%, 3=40-59%, 2=20-39%, 1=0-19% damage; conditions: 250 g/ha, evaluated after 13 days
In short: as §4

Row | SMILES | percentage damage caused to the plant, five point scale, ABUTH [1] | percentage damage caused to the plant, five point scale, AMARE [2] | percentage damage caused to the plant, five point scale, IPOHE [3] | percentage damage caused to the plant, five point scale, SETFA (Setaria faberi (SETFA) [4]) | percentage damage caused to the plant, five point scale, ZEAMX (Zea Mays (ZEAMX) [5]) | percentage damage caused to the plant, five point scale, ABUTH [6] | percentage damage caused to the plant, five point scale, AMARE [7] | percentage damage caused to the plant, five point scale, IPOHE [9] | percentage damage caused to the plant, five point scale, SETFA (Setaria faberi (SETFA) [10]) | percentage damage caused to the plant, five point scale, ZEAMX (Zea Mays (ZEAMX) [11]) | other results
1 | Cc1nn(C)c(=O)c(-c2c(F)ccc(Cl)c2CCc2ccc(C(N)=O)cc2)c1O [Compound A-1.392] | 4 (4=60-79%) | 5 (5=80-100%) | 3 (3=40-59%) | 5 (5=80-100%) | 2 (2=20-39%) | 5 (5=80-100%) | 5 (5=80-100%) | 5 (5=80-100%) | 5 (5=80-100%) | 2 (2=20-39%) | percentage damage caused to the plant, five point scale, ECHCG [8]: 5 (5=80-100%)
2 | CNS(=O)(=O)c1ccc(CCc2c(Cl)ccc(F)c2-c2c(O)c(C)nn(C)c2=O)cc1 [Compound A-1.390] | 4 (4=60-79%) | 5 (5=80-100%) | 4 (4=60-79%) | 5 (5=80-100%) | 1 (1=0-19%) | 5 (5=80-100%) | 5 (5=80-100%) | 5 (5=80-100%) | 5 (5=80-100%) | 1 (1=0-19%) | –
3 | CC(=O)Nc1ccc(CCc2c(Cl)ccc(F)c2-c2c(O)c(C)nn(C)c2=O)cc1 [Compound A-1.024] | – | – | – | – | – | – | – | – | – | – | percentage damage caused to the plant, five point scale, AMARE [12]: 5 (5=80-100%); percentage damage caused to the plant, five point scale, ECHCG [13]: 4 (4=60-79%); percentage damage caused to the plant, five point scale, IPOHE [14]: 5 (5=80-100%); percentage damage caused to the plant, five point scale, LOLPE (Lolium perenne (LOLPE) [15]): 5 (5=80-100%); percentage damage caused to the plant, five point scale, SETFA (Setaria faberi (SETFA) [16]): 5 (5=80-100%); percentage damage caused to the plant, five point scale, SOLNI (Solanum nigrum (SOLNI) [17]): 5 (5=80-100%); Control of weed species after pre-emergence application, AMARE (percentage damage, five point scale) [18]: 5 (5=80-100%); Control of weed species after pre-emergence application, SOLNI (percentage damage, five point scale) (Solanum nigrum (SOLNI) [19]): 5 (5=80-100%); Control of weed species after pre-emergence application, ECHCG (percentage damage, five point scale) [20]: 2 (2=20-39%); Control of weed species after pre-emergence application, IPOHE (percentage damage, five point scale) [21]: 0; Control of weed species after pre-emergence application, LOLPE (percentage damage, five point scale) (Lolium perenne (LOLPE) [22]): 4 (4=60-79%); Control of weed species after pre-emergence application, SETFA (percentage damage, five point scale) (Setaria faberi (SETFA) [23]): 5 (5=80-100%)
